Measured values published in patent US12297190B2, “Modulators of STING (stimulator of interferon genes)” (PFIZER INC., priority 2019, dated 2025).

Target: R232-STING (Homo sapiens, UniProt Q86WV6, H232R)
Assay: biochemical

Chain of R232-STING (Q86WV6 155-341 H232R): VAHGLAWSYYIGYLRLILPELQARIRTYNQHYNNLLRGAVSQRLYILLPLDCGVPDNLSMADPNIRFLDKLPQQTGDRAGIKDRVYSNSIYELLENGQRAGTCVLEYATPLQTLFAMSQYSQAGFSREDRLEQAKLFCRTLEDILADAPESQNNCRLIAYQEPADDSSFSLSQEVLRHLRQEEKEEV

SMILES	Ki
CCn1nc(C)cc1-c1ncc(-c2cc(C(N)=O)cc3c2cnn3C)[nH]1 [ZZZ009, 4-[2-(1-ethyl-3-methyl-1H-pyrazol-5-yl)-1H-imidazol-5-yl]-1-methyl-1H-indazole-6-carboxamide]	947 nM
Cn1ncc2c(-c3nc(-c4cc(C(F)(F)F)nn4CCC(=O)O)n[nH]3)cc(C(N)=O)cc21 [ZZZ085, 3-{5-[5-(6-carbamoyl-1-methyl-1H-indazol-4-yl)-1H-1,2,4-triazol-3-yl]-3-(trifluoromethyl)-1H-pyrazol-1-yl}propanoic acid]	44.2 nM
CCn1nc(C)cc1-c1n[nH]c(-c2nc(C(N)=O)cc3[nH]ncc23)n1 [ZZZ012, 4-[3-(1-ethyl-3-methyl-1H-pyrazol-5-yl)-1H-1,2,4-triazol-5-yl]-1H-pyrazolo[4,3-c]pyridine-6-carboxamide]	190 nM
CCc1nc(C)n(C)c1-c1n[nH]c(-c2cc(C(N)=O)cc3c2cnn3C)n1 [ZZZ056, 4-[3-(4-ethyl-1,2-dimethyl-1H-imidazol-5-yl)-1H-1,2,4-triazol-5-yl]-1-methyl-1H-indazole-6-carboxamide]	> 990 nM
CCn1nc(C)cc1-c1nnc(-c2cc(C(N)=O)cc3c2cnn3C2CCNCC2)[nH]1 [ZZZ067, 4-[5-(1-ethyl-3-methyl-1H-pyrazol-5-yl)-4H-1,2,4-triazol-3-yl]-1-(piperidin-4-yl)-1H-indazole-6-carboxamide]	536 nM
CCn1nc(CO)c(F)c1-c1nc(-c2nc(C(N)=O)cc3c2cnn3C)n(C)n1 [ZZZ052, 4-{3-[1-ethyl-4-fluoro-3-(hydroxymethyl)-1H-pyrazol-5-yl]-1-methyl-1H-1,2,4-triazol-5-yl}-1-methyl-1H-pyrazolo[4,3-c]pyridine-6-carboxamide]	> 990 nM
CCn1nc(C)cc1-c1n[nH]c(-c2cc(C(N)=O)cc3c2cnn3CCN2CC(O)C2)n1 [ZZZ100, 4-[3-(1-ethyl-3-methyl-1H-pyrazol-5-yl)-1H-1,2,4-triazol-5-yl]-1-[2-(3-hydroxyazetidin-1-yl)ethyl]-1H-indazole-6-carboxamide]	842 nM
CCn1nc(C)cc1-c1nnc(-c2cc(C(N)=O)cc3nn(C)nc23)[nH]1 [ZZZ003, 7-[5-(1-ethyl-3-methyl-1H-pyrazol-5-yl)-4H-1,2,4-triazol-3-yl]-2-methyl-2H-benzotriazole-5-carboxamide]	> 990 nM
CCn1nc(C)cc1-c1nnc(-c2cc(C(N)=O)cc3c2cnn3CC(C)(C)CN(C)C)[nH]1 [ZZZ013, 1-[3-(dimethylamino)-2,2-dimethylpropyl]-4-[5-(1-ethyl-3-methyl-1H-pyrazol-5-yl)-4H-1,2,4-triazol-3-yl]-1H-indazole-6-carboxamide]	> 990 nM
CCN(CCC#N)CCn1ncc2c(-c3nc(-c4cc(C)nn4CC)n[nH]3)cc(C(N)=O)cc21 [ZZZ104, 1-{2-[(2-cyanoethyl)(ethyl)amino]ethyl}-4-[3-(1-ethyl-3-methyl-1H-pyrazol-5-yl)-1H-1,2,4-triazol-5-yl]-1H-indazole-6-carboxamide]	806 nM
CCn1nc(C)cc1-c1nnc(-c2cc(C(N)=O)cc3c2cnn3C[C@H]2[C@@H]3CN(C(C)C)C[C@@H]32)[nH]1 [ZZZ017, 4-[5-(1-ethyl-3-methyl-1H-pyrazol-5-yl)-4H-1,2,4-triazol-3-yl]-1-{[(1R,5S,6r)-3-(propan-2-yl)-3-azabicyclo[3.1.0]hexan-6-yl]methyl}-1H-indazole-6-carboxamide]	> 990 nM
CCN(CCO)CCn1ncc2c(-c3nc(-c4cc(C)nn4CC)n[nH]3)cc(C(N)=O)cc21 [ZZZ112, 1-{2-[ethyl(2-hydroxyethyl)amino]ethyl}-4-[3-(1-ethyl-3-methyl-1H-pyrazol-5-yl)-1H-1,2,4-triazol-5-yl]-1H-indazole-6-carboxamide]	> 990 nM
CCn1nc(C)cc1-c1nnc(-c2cc(C(N)=O)cc3c2cnn3CCCN(C)C)[nH]1 [ZZZ007, 1-[3-(dimethylamino)propyl]-4-[5-(1-ethyl-3-methyl-1H-pyrazol-5-yl)-4H-1,2,4-triazol-3-yl]-1H-indazole-6-carboxamide]	850 nM
CCn1nc(CO)cc1-c1nc(-c2nc(C(N)=O)cc3[nH]ncc23)n(C)n1 [ZZZ082, 4-{3-[1-ethyl-3-(hydroxymethyl)-1H-pyrazol-5-yl]-1-methyl-1H-1,2,4-triazol-5-yl}-1H-pyrazolo[4,3-c]pyridine-6-carboxamide]	501 nM
CCc1cc(-c2n[nH]c(-c3cc(C(N)=O)cc4c3cnn4C)n2)n(CC)n1 [ZZZ005, 4-[3-(1,3-diethyl-1H-pyrazol-5-yl)-1H-1,2,4-triazol-5-yl]-1-methyl-1H-indazole-6-carboxamide]	> 990 nM
CCn1nc(C)cc1-c1nnc(-c2cc(C(N)=O)cc3c2cnn3[C@H](C)CCN2CCOCC2)[nH]1 (racemic) [ZZZ022, 4-[5-(1-ethyl-3-methyl-1H-pyrazol-5-yl)-4H-1,2,4-triazol-3-yl]-1-[(2R)-4-(morpholin-4-yl)butan-2-yl]-1H-indazole-6-carboxamide]	447 nM

SMILES	Ki
CCc1nc(C)[nH]c1-c1n[nH]c(-c2cc(C(N)=O)cc3c2cnn3C)n1 [ZZZ055, 4-[3-(4-ethyl-2-methyl-1H-imidazol-5-yl)-1H-1,2,4-triazol-5-yl]-1-methyl-1H-indazole-6-carboxamide]	> 990 nM
CCn1nc(C)cc1-c1nnc(-c2cc(C(N)=O)cc3c2cnn3CCCN2CCO[C@@H](C)C2)[nH]1 (racemic) [ZZZ029, 4-[5-(1-ethyl-3-methyl-1H-pyrazol-5-yl)-4H-1,2,4-triazol-3-yl]-1-{3-[(2S)-2-methylmorpholin-4-yl]propyl}-1H-indazole-6-carboxamide]	561 nM
CCn1nc(C)cc1-c1n[nH]c(-c2cc(C(N)=O)cc3c2cnn3CCN2CCOC[C@@H]2C2CC2)n1 (racemic) [ZZZ099, 1-{2-[(3S)-3-cyclopropylmorpholin-4-yl]ethyl}-4-[3-(1-ethyl-3-methyl-1H-pyrazol-5-yl)-1H-1,2,4-triazol-5-yl]-1H-indazole-6-carboxamide]	723 nM
CCn1nc(C)cc1-c1nnc(-c2cc(C(N)=O)cc3c2cnn3C[C@@H]2CNCCO2)[nH]1 [ZZZ064, 4-[5-(1-ethyl-3-methyl-1H-pyrazol-5-yl)-4H-1,2,4-triazol-3-yl]-1-{[(2S)-morpholin-2-yl]methyl}-1H-indazole-6-carboxamide]	> 990 nM
CCn1nc(C)cc1-c1nnc(-c2cc(C(N)=O)cc3c2cnn3C[C@@H]2CCC3(CNC3)O2)[nH]1 (racemic) [ZZZ063, 4-[5-(1-ethyl-3-methyl-1H-pyrazol-5-yl)-4H-1,2,4-triazol-3-yl]-1-{[(6S)-5-oxa-2-azaspiro[3.4]octan-6-yl]methyl}-1H-indazole-6-carboxamide]	> 990 nM
CCn1nc(C(=O)O)cc1-c1n[nH]c(-c2nc(C(N)=O)cc3c2cnn3C)n1 [ZZZ004, 5-[5-(6-carbamoyl-1-methyl-1H-pyrazolo[4,3-c]pyridin-4-yl)-1H-1,2,4-triazol-3-yl]-1-ethyl-1H-pyrazole-3-carboxylic acid]	> 90 nM
CCn1nc(C)cc1-c1n[nH]c(-c2nc(C(N)=O)cc3cn[nH]c23)n1 [ZZZ010, 7-[3-(1-ethyl-3-methyl-1H-pyrazol-5-yl)-1H-1,2,4-triazol-5-yl]-1H-pyrazolo[3,4-c]pyridine-5-carboxamide]	> 990 nM
CCn1nc(C)cc1-c1n[nH]c(-c2cc(C(N)=O)cc3c2cnn3CCN2CCO[C@@H](C)C2)n1 (racemic) [YY08, 4-[5-(1-ethyl-3-methyl-1H-pyrazol-5-yl)-4H-1,2,4-triazol-3-yl]-1-{2-[(2S)-2-methylmorpholin-4-yl]ethyl}-1H-indazole-6-carboxamide]	373 nM
CCn1nc(C)c(F)c1-c1n[nH]c(-c2cc(C(N)=O)cc3c2cnn3CCCNC)n1 [ZZZ054, 4-[3-(1-ethyl-4-fluoro-3-methyl-1H-pyrazol-5-yl)-1H-1,2,4-triazol-5-yl]-1-[3-(methylamino)propyl]-1H-indazole-6-carboxamide]	> 1890 nM
CCn1nc(C)c(F)c1-c1nc(-c2c(F)c(C(N)=O)cc3c2cnn3C)n(C)n1 [ZZZ130, 4-[3-(1-ethyl-4-fluoro-3-methyl-1H-pyrazol-5-yl)-1-methyl-1H-1,2,4-triazol-5-yl]-5-fluoro-1-methyl-1H-indazole-6-carboxamide]	> 990 nM
CCn1nc(C)cc1-c1n[nH]c(-c2cc(C(N)=O)cc3c2cnn3CCN2CCO[C@H](CO)C2)n1 [ZZZ118, 4-[3-(1-ethyl-3-methyl-1H-pyrazol-5-yl)-1H-1,2,4-triazol-5-yl]-1-{2-[(2S)-2-(hydroxymethyl)morpholin-4-yl]ethyl}-1H-indazole-6-carboxamide]	538 nM
CCn1nc(C(=O)O)cc1-c1cnc(-c2cc(C(N)=O)cc3c2cnn3C)[nH]1 [ZZZ124, 5-[2-(6-carbamoyl-1-methyl-1H-indazol-4-yl)-1H-imidazol-5-yl]-1-ethyl-1H-pyrazole-3-carboxylic acid]	> 90 nM
CCn1nc(C)cc1-c1nnc(-c2cc(C(N)=O)cc3c2cnn3CC2CC3(CNC3)C2)[nH]1 [ZZZ080, 1-[(2-azaspiro[3.3]heptan-6-yl)methyl]-4-[5-(1-ethyl-3-methyl-1H-pyrazol-5-yl)-4H-1,2,4-triazol-3-yl]-1H-indazole-6-carboxamide]	> 990 nM
CCn1nc(C)cc1-c1n[nH]c(-c2cc(C(N)=O)cc3c2cnn3CCN2CCO[C@@H](CO)C2)n1 [ZZZ115, 4-[3-(1-ethyl-3-methyl-1H-pyrazol-5-yl)-1H-1,2,4-triazol-5-yl]-1-{2-[(2R)-2-(hydroxymethyl)morpholin-4-yl]ethyl}-1H-indazole-6-carboxamide]	846 nM
CCn1nc(C)cc1-c1nnc(-c2cc(C(N)=O)cc3c2cnn3CC[C@@H]2CCN(C)C2)[nH]1 [ZZZ035, 4-[5-(1-ethyl-3-methyl-1H-pyrazol-5-yl)-4H-1,2,4-triazol-3-yl]-1-{2-[(3S)-1-methylpyrrolidin-3-yl]ethyl}-1H-indazole-6-carboxamide]	> 990 nM
CCn1nc(C)cc1-c1n[nH]c(-c2cc(C(N)=O)cc3c2cnn3CCN(C)CC(N)=O)n1 [ZZZ105, 1-{2-[(2-amino-2-oxoethyl)(methyl)amino]ethyl}-4-[3-(1-ethyl-3-methyl-1H-pyrazol-5-yl)-1H-1,2,4-triazol-5-yl]-1H-indazole-6-carboxamide]	879 nM
